Columns and labels:
[1] = Plasma pharmacokinetics in MCAO/R rats after iv IMM-H004 citrate; assay type: in vivo; details: rat, iv IMM-H004 citrate 10 mg/kg
Description: The plasma pharmacokinetics (PK) and pharmacodynamics (PD) of IMM-H004 and IMM-H004G were investigated in a cerebral ischemia-reperfusion rat model produced by middle cerebral artery occlusion/reperfusion (MCAO/R) after iv administration of IMM-H004. In brief, rats underwent a 1-h MCAO and then received IMM-H004 citrate (10 mg/kg, dissolved in saline to yield a concentration of 2 mg/ml) immediately after reperfusion, an effective dosing time as reported ([Zuo et al., 2015]; [Yang et al., 2017]). For sham surgery, all the arteries were exposed for the surgical period, but the filament was not inserted into the MCA. Blood samples were collected through external jugular vein cannula into heparinized tubes at 0.033, 0.167, 0.5, 1, 2, 4, 6, 8, 12, 24, 36, and 48 h postdose for IMM-H004 and IMM-H004G detection (50 μL of blood at each time point) and at 0.5, 1, 2, 4, 7, and 10 h postdose for malondialdehyde (MDA) detection (80 μL of blood at each time point). Plasma was immediately separated by centrifugation at 900×g for 5 min. Plasma concentrations of IMM-H004 and IMM-H004G in ischemia-reperfusion rats were determined by LC-MS/MS analysis. The PK parameters were calculated by noncompartmental analysis using WinNonlin Version 6.1 (Pharsight, Mountain View, CA). Plasma MDA concentrations in ischemia-reperfusion and sham rats within 24 h were estimated by enzyme-linked immunosorbent assay.
(§1) The LC-MS/MS system consisted of Shimadzu 30A UPLC and API 4000 triple quadruple mass spectrometer (AB SCIEX, USA). Data acquisition and analysis were accomplished using Analyst 1.5.2 software. The analytes and IS were chromatographed by injection of 1 μL sample. The mobile phases consisted of solvent A (0.5% formic acid in water) and solvent B (0.5% formic acid in methanol) at a flow rate of 0.3 ml/min on an Eclipse Plus C18 column (2.1 mm × 50 mm, 3.5 μm, Agilent, USA), and the operating temperature was 40°C. The elution condition was 10% solvent B for 0.7 min, ascending to 98% B in 2.3 min, holding for 3.0 min and reequilibrating to 10% B within 0.1 min and maintained for 2.4 min (Jiang JW, 2018). The specific transitions monitored were 305→248 for IMM-H004, 291→234 for M1, 291→248 for M2, 481→305 for IMM-H004G, 385→305 for M4, and 260→183 for IS.

[2] = test system: rat liver microsomes (RLMs), UGT; test: Kinetics of IMM-H004G formation (glucuronidation) in UDPGA-supplemented rat liver microsomes; assay type: in vitro ADME; details: substrate IMM-H004
Description: To explore glucuronidation difference of IMM-H004 between humans and rats, the kinetics of IMM-H004G formation in UDPGA-supplemented HLMs and RLMs were determined. The incubation mixtures consisted of HLMs or RLMs (0.025 mg protein/ml), alamethicin (50 μg/mg protein), IMM-H004 (0.5–2,500 μM), and UDPGA (5 mM) in a final volume of 0.2 ml Tris-HCl buffer (50 mM, pH 7.4) containing 5 mM MgCl2. HLM or RLM was preincubated with alamethicin on ice for 15 min. The reaction was incubated at 37°C for 10 min and quenched by adding 200 μL of ice-cold acetonitrile containing IS (100 ng/ml). After vortex-mixing and centrifugation, IMM-H004G in the supernatant was analyzed by LC-MS/MS.
as §1, with “The elution condition was 10% solvent B for 0.7 min, ascending to 98% B in 2.3 min, holding for 3.0 min and reequilibrating to 10% B within 0.1 min and maintained for 2.4 min (Jiang JW, 2018).” left out

[3] = test system: PC12 cells; test: Neuroprotection in oxygen-glucose deprivation injured PC12 cells (MTT cell viability); assay type: cell-based; details: 1 and 10 μM, 24 h, MTT, vs model group
Description: The neuroprotective activity of IMM-H004 and IMM-H004G was evaluated on PC12 cells damaged by oxygen-glucose deprivation (OGD). PC12 cells were purchased from the American Type Culture Collection. Cultures were maintained at 37°C in 5% CO2 in a humidified incubator. For cell viability assay, PC12 cells were incubated in 96-well plates at a density of 5 × 10^4/ml for 24 h. In the sham group, PC12 cells were cultured in Dulbecco’s modified eagle medium supplemented with 5% fetal bovine serum and 5% equine serum (Gibco, USA). In the OGD group, PC12 cells were cultured in glucose-free Earle’s balanced salt solution supplemented with 15 mM Na2S2O4 for 2 h and then incubated with compounds of nerve growth factor (NGF, 10 μM), edaravone (10 μM, 50 μM), IMM-H004 (1 μM, 10 μM), and IMM-H004G (1 μM, 10 μM), respectively. After 24 h of incubation, MTT (5 mg/ml) was added into the cell cultures and incubated for an additional 4 h. Then the supernatant was removed and 100 μL DMSO was added. Absorbance was measured using an Ultramark microplate reader at a wavelength of 562 nm. The cell viability was expressed as a percentage of the absorbance density value of control cultures.

[4] = design: method as in Zhang et al., 2017; details: rat plasma and brain, 6 mg/kg; ref Zhang et al., 2017; cited from earlier work
[5] = design: method as in Jiang et al., 2018; details: rat brain; ref Jiang et al., 2018; cited from earlier work
[6] = Excretion in rat urine, bile and feces after iv IMM-H004 citrate; assay type: in vivo; details: iv IMM-H004 citrate 6 mg/kg
Description: After intravenous (iv) injection with IMM-H004 citrate (6 mg/kg, dissolved in saline to yield a concentration of 1.2 mg/ml), rats were housed individually in metabolic cages to allow separate collection of urine and feces until 72 h postdose. Additional rats were bile cannulated under light ether anesthesia. Each rat was housed individually in a metabolic cage and allowed to recover from anesthesia for 2 to 3 h. Then bile duct cannulated rats were iv injected with IMM-H004 citrate (6 mg/kg, dissolved in saline to yield a concentration of 1.2 mg/ml), bile samples were collected until 24 h postdose.
Feces samples were homogenized in 10-fold solvent of water and methanol (1:1) and diluted 10-fold in water. Bile and urine samples were diluted 100-fold in water. The concentrations of IMM-H004, M1, M2, and IMM-H004G in diluted bile, urine, and feces samples were determined by LC-MS/MS.
as §1

AUC(0-inf) [1]: 1640 ng·h/mL
AUC(0-t) [1]: 1640 ng·h/mL
Cmax [1]: 7460 ng/mL
MRT last ([1]; read-out: MRT(0-t)): 10.8 ± 0.6 min
MRT inf ([1]; read-out: MRT(0-∞)): 11.4 ± 1.2 min
half-life ([1]; read-out: t 1/2β (converted)): 25.2 ± 1.8 min
Tmax ([1]; iv, 10 mg/kg, read-out: T max): 1.8 min
recovery of IMM-H004G and IMM-H004 in bile ([6]; bile duct cannulated rats, until 24 h): 76.1 % of intake
IMM-H004 in fecal specimens ([6]; rat feces, until 72 h): 18 % of the dose
SMILES: COc1cc(O)cc2oc(=O)c(N3CCN(C)CC3)c(C)c12 [IMM-H004, 7-hydroxy-5-methoxy-4-methyl-3-(4-methylpiperazin-1-yl)-coumarin]
K m of IMM-H004G formation (glucuronidation) [2]: 9.5 µM
V max of IMM-H004G formation (glucuronidation) [2]: 5.04 nmol/min/mg protein
cell viability of OGD-injured PC12 cells [3]: significant (p < 0.05) preservation of viability
elimination half-life (t 1/2β) [4]: 11.4 min
T max (crossing the blood–brain barrier) [5]: 12.6 min

— article PMC6584114, “Metabolism of IMM-H004 and Its Pharmacokinetic-Pharmacodynamic Analysis in Cerebral Ischemia/Reperfusion Injured Rats” (Frontiers in Pharmacology, 2019)
